{"source": "paper PMC6027359", "about": "“NUC041, a Prodrug of the DNA Methytransferase Inhibitor 5-aza-2′,2′-Difluorodeoxycytidine (NUC013), Leads to Tumor Regression in a Model of Non-Small Cell Lung Cancer” (Pharmaceuticals, 2018)", "key": {"NSCLC NCI-H460": {"test_system": "NSCLC NCI-H460", "experiment": "GI50 in NSCLC NCI-H460 cells (CellTiter-Glo)", "format": "cell-based, human", "description": "(§1) As per methods previously presented, cells were grown in an appropriate medium for the cell line of interest. 96 well plates of each cell line were seeded with 5000 cells per well and left overnight. […] Luminescence was recorded on a Synergy 4.0 (BioTek Instruments, Winooski, VT, USA). Assays were performed in triplicate."}, "Colon Cancer HCT-116": {"test_system": "Colon Cancer HCT-116", "experiment": "GI50 in colon cancer HCT-116 cells (CellTiter-Glo)", "format": "cell-based, human", "description": "as §1"}, "[1]": {"experiment": "Pharmacokinetics in mouse whole blood after IV NUC041 in lipid nano-emulsion (LNE)", "details": "analyte in whole blood, NUC041 15 mg/kg IV in LNE vehicle, mice", "excerpt": "As per methods previously presented, the lipid nano-emulsion (Latitude Pharmaceuticals, San Diego, CA, USA) contained an oil phase consisting of an injectable oil and lecithin and an aqueous phase comprising a tonicity adjuster, a stabilizer, and water."}, "[2]": {"test_system": "human colon cancer (LoVo)", "experiment": "Mouse xenograft model of human colon cancer (LoVo)", "format": "in vivo, NCr-nu/nu mice", "description": "NUC041 in LNE was tested at 30 mg/kg IV for three consecutive days a week for three weeks in a mouse xenograft model of human colon cancer (Lovo) and compared to saline control (SC).\nStudy initiation began when the required number of mice had tumors of approximately 40 to 75 mm^3. […] Study initiation began when the required number of mice had tumors of approximately 32 to 75 mm^3.\nMice received test article as described in the text. […] Any animal whose weight decreased more than 30% from the weight on the first day of treatment or whose tumor reached 4000 mm^3 in volume, ulcerated, sloughed off, or was moribund was euthanized prior to study termination."}, "[3]": {"experiment": "Tolerability studies of NUC041 formulated in PPD", "format": "in vivo, mice", "description": "Administration of 50 µL of PPD vehicle IM led to a weight loss of 10.9% two days following vehicle administration. NUC041 was formulated at a concentration of 60 mg/mL in this vehicle."}, "human NSCLC NCI-H460 [4]": {"test_system": "human NSCLC NCI-H460", "experiment": "Tumor histology of NCI-H460 xenografts", "format": "in vivo, NCr-nu/nu mice", "excerpt": "Approximately half of each tumor was fixed in 10% neutral-buffered formalin and the other half was frozen. The fixed neoplasm was trimmed, processed, embedded, and microtomed (approximately 5 µm sections). Tissue sections were mounted on glass slides, stained with hematoxylin and eosin (H&E), and coverslipped. Slides were submitted to a veterinary pathologist for a histopathologic evaluation."}, "human NSCLC NCI-H460 [5]": {"test_system": "human NSCLC NCI-H460", "experiment": "Human NSCLC NCI-H460 xenograft", "details": "for mean tumor volume at which ulceration developed: SC 2770; for deaths in group / mice that developed tumor ulceration: NCI-H460 xenograft; for deaths in group: n = 10 per group, NUC041: 0.6 mg group; for mice that developed tumor ulceration: NUC041 both PPD groups, evaluable mice, SC 4 of 10; for Median survival: p = NS", "quoted_text": "Survival refers to animals that were not removed from the study by death or per protocol euthanasia.\nMice with tumors in the proper volume range were arbitrarily assigned to groups. Mice received test article as described in the text. Mice were observed daily for mortality and moribundity with weights and the tumor measurements taken twice weekly. Tumor volume was determined using the formula for an ellipsoid sphere: Length × Width^2/2 = Volume (mm^3). The experiments were scheduled to last 60 days from the day of tumor implant."}, "[6]": {"experiment": "Pharmacokinetics in mouse whole blood after IM NUC041 in PEG-phospholipid depot (PPD)", "details": "analyte in whole blood, NUC041 3 mg/mouse IM in PPD, mice", "quoted_text": "Quantitative determination of NUC013 and NUC041 in quenched mouse whole blood was accomplished using protein precipitation and high-performance liquid chromatography with tandem mass spectrometry detection. Gemcitabine-^13C, ^15N2 “GemC-^13C”, was used as the internal standard. NUC013, NUC041 and GemC-^13C were extracted from 50 µL whole blood using protein precipitation with acetonitrile. Extracts were analyzed by hydrophilic interaction chromatography at 35 °C, using a XBridge™ Amide column (Waters Corp., Milford, MA, USA) under isocratic conditions, with 100 mM ammonium acetate pH 9: ethanol: acetonitrile (25:25:500, v/v/v) as mobile phase A. Column effluents at a constant flow rate of 300 µL/min were analyzed by multiple reaction monitoring (MRM) using a triple quadrupole mass spectrometer in positive-ion mode (AB Sciex 4000 Q Trap, equipped with TurboV IonSpray®) (SCIEX, Framingham, MA, USA).\nThe calibration curve for each analyte was fitted using weighted (1/x^2) linear regression analysis of the Analyte/IS peak area ratio versus Analyte/IS concentration ratio from 5–5000 ng/mL.\nPharmacokinetic parameters were calculated from mean concentrations of NUC-041 or NUC013 in blood over time for mice using Phoenix® WinNonlin® (Version 6.3; Pharsight, A Certara Company; Cary, NC, USA).\nThe PEG-phospholipid depot (Latitude Pharmaceuticals, San Diego, CA, USA) comprised of S-100, DSPE-PEG 2000, sesame oil, and alcohol. These four constituents were placed in a vial, warmed to 40 °C until all products dissolved, and the vehicle was then vortexed. Subsequently, the vehicle was filtered through a 0.22 µm syringe filter and NUC041 was added. The formulated product was heated to 40 °C, vortexed, and stored at 2–8 °C."}, "[7]": {"parameters": "method as in PMID 28726739", "details": "mice; cited from earlier work"}, "[8]": {"details": "continuous infusion over seven days, patients with refractory solid tumors; cited from earlier work"}, "[9]": {"details": "IM, mice premedicated with dexamethasone 50 µg IP"}, "[10]": {"details": "Mice 2-4 (individual), NUC041 0.6 mg/mouse qod, euthanasia day 34"}, "[11]": {"details": "Mouse 1, NUC041 2.4/3.0 mg/mouse qwk + dexamethasone, euthanasia day 35"}}, "note": "Where “and” joins values, the source holds several entries; their conditions need not be identical. Equal entries are not always repeated. Entries after “also recorded” stand apart in the source; their conditions may differ. Where two headings read alike, the source gives them in different places."}
{"compound": "3′,5′-di-trimethylsilyl-2′,2′-difluoro-5-azadeoxycytidine [NUC041]", "values": [{"measurement": "GI50", "setting": "NSCLC NCI-H460; 72 h exposure", "value": 1.61, "unit": "µM"}, {"measurement": "GI50", "setting": "Colon Cancer HCT-116; 72 h exposure", "value": 2.8, "unit": "µM"}, {"measurement": "AUCinf", "setting": "[1]", "value": 590.6, "unit": "ng·h/mL"}, {"measurement": "AUClast", "setting": "[1]", "value": 580.4, "unit": "ng·h/mL"}, {"measurement": "Cl", "setting": "[1]", "value": 423, "unit": "mL/min/kg"}, {"measurement": "Cmax", "setting": "[1]", "value": 2803, "unit": "ng/mL"}, {"measurement": "T1/2", "setting": "[1]", "value": 11, "unit": "min"}, {"measurement": "Vss", "setting": "[1]", "value": 4.431, "unit": "L/kg"}, {"measurement": "Tmax", "setting": "[1]; for NUC041 first sampling time", "value": 3, "unit": "min"}, {"measurement": "mice with tumor ulcerations, LoVo study", "setting": "[2]; NUC041 administered IV in LNE, SC 3/10", "value": "2/10"}, {"measurement": "efficacy in xenograft model of human colon cancer (LoVo)", "setting": "[2]; NUC041 in LNE 30 mg/kg IV", "value": "only moderate efficacy"}, {"measurement": "study days on which growth of LoVo was significantly inhibited compared to SC", "setting": "[2]; NUC041 in LNE 30 mg/kg IV, three consecutive days a week for three weeks, p < 0.05", "value": "27–30 study days"}, {"measurement": "tolerability of IM injection of 3 mg per mouse", "setting": "[3]; 50 µg IP dexamethasone 30 min prior", "value": "without weight loss or lethality"}, {"measurement": "maximum tolerated dose (MTD)", "setting": "[3]; IM qod, no premedication, mice", "value": 0.6, "unit": "mg/mouse"}, {"measurement": "MTD", "setting": "[3]; [9]", "value": "> 3", "unit": "mg/mouse"}, {"measurement": "MTD as mean dose", "setting": "[3]; [9]", "value": "> 123.8", "unit": "mg/kg"}, {"measurement": "Tumor Volume", "setting": "human NSCLC NCI-H460 [4]; [10]", "value": "3035 mm^3 and 1960 mm^3 and 936 mm^3"}, {"measurement": "Ulceration", "setting": "human NSCLC NCI-H460 [4]; [10]", "value": "no ulceration; also recorded: ulceration"}, {"measurement": "Histopathology: necrosis", "setting": "human NSCLC NCI-H460 [4]; Mice 2-4 (individual), NUC041 0.6 mg/mouse qod, euthanasia day 34, in ulcerated tumors excludes area of ulceration", "value": "50–60% necrosis and 10% necrosis * and 5% necrosis *"}, {"measurement": "Histopathology: necrosis", "setting": "human NSCLC NCI-H460 [4]; [11]", "value": "30–40% necrosis"}, {"measurement": "Tumor Volume", "setting": "human NSCLC NCI-H460 [4]; [11]", "value": 2746, "unit": "mm^3"}, {"measurement": "Ulceration", "setting": "human NSCLC NCI-H460 [4]; [11]", "value": "no ulceration"}, {"measurement": "mean tumor volume at which ulceration developed", "setting": "human NSCLC NCI-H460 [5]; 0.6 mg NUC041 group, p = 0.0068", "value": 1474, "unit": "mm^3"}, {"measurement": "mean tumor volume at which ulceration developed", "setting": "human NSCLC NCI-H460 [5]; 3 mg NUC041 with dexamethasone group, p = 0.0043", "value": 1319, "unit": "mm^3"}, {"measurement": "deaths in group", "setting": "human NSCLC NCI-H460 [5]", "value": "two"}, {"measurement": "mice that developed tumor ulceration", "setting": "human NSCLC NCI-H460 [5]", "value": "15 of 18"}, {"measurement": "Median survival", "setting": "human NSCLC NCI-H460 [5]; NUC041 0.6 mg IM qod x 15", "value": 24.5, "unit": "days"}, {"measurement": "peak tumor volume", "setting": "human NSCLC NCI-H460 [5]; NUC041 0.6 mg group, Mice 3 and 4", "value": "3179 mm^3 and 1913 mm^3"}, {"measurement": "regression in tumor volume", "setting": "human NSCLC NCI-H460 [5]; NUC041 0.6 mg group, two individual mice with ulcerated tumors (Mice 3 and 4), day 25 to 32", "value": "38% and 51%"}, {"measurement": "Median survival", "setting": "human NSCLC NCI-H460 [5]; NUC041 2.4 mg/mouse IM qwk x 3 then 3.0 mg/mouse qwk x 1 with 50 µg dexamethasone IP", "value": 25.5, "unit": "days"}, {"measurement": "survival benefit vs SC", "setting": "human NSCLC NCI-H460 [5]; NUC041 in PPD with or without dexamethasone pretreatment", "value": "no survival benefit"}, {"measurement": "AUCinf", "setting": "[6]", "value": 6261, "unit": "ng·h/mL"}, {"measurement": "AUClast", "setting": "[6]", "value": 6030, "unit": "ng·h/mL"}, {"measurement": "Cmax", "setting": "[6]", "value": 4210, "unit": "ng/mL"}, {"measurement": "MRT", "setting": "[6]", "value": 156, "unit": "min"}, {"measurement": "T1/2", "setting": "[6]", "value": 102, "unit": "min"}, {"measurement": "Tmax", "setting": "[6]", "value": 30, "unit": "min"}, {"measurement": "Vz/F", "setting": "[6]", "value": 1.172, "unit": "L/kg"}]}
{"compound": "Nc1ncn([C@@H]2O[C@H](CO)[C@@H](O)C2(F)F)c(=O)n1", "note": "[NUC013, 5-aza-2′,2′-difluorodeoxycytidine]", "values": [{"measurement": "GI50", "setting": "NSCLC NCI-H460; Homo sapiens, NCI-H460, 72 h exposure", "value": 1.57, "unit": "µM"}, {"measurement": "GI50", "setting": "Colon Cancer HCT-116; Homo sapiens, HCT-116, 72 h exposure", "value": 2.58, "unit": "µM"}, {"measurement": "MTD", "setting": "[7]", "value": "> 120", "unit": "mg/kg"}, {"measurement": "deaths in group", "setting": "human NSCLC NCI-H460 [5]", "value": "One"}, {"measurement": "mice that developed tumor ulceration", "setting": "human NSCLC NCI-H460 [5]", "value": "1 of 10"}, {"measurement": "hazard ratio (HR) vs SC", "setting": "human NSCLC NCI-H460 [5]; NUC013 20 mg/kg IV qd three consecutive days per week x 4, p = 0.0018, Log rank test", "value": 0.14}]}
{"compound": "Nc1ncn([C@H]2C[C@H](O)[C@@H](CO)O2)c(=O)n1", "note": "[decitabine]", "values": [{"measurement": "MTD", "setting": "[8]", "value": 2, "unit": "mg/m^2 qd"}, {"measurement": "main dose limiting toxicity", "setting": "[8]", "value": "neutropenia"}]}
